From paper doi:10.1101/2025.05.22.655130v1, “Design to Data for mutants of β-glucosidase B from Paenibacillus polymyxa: L336M, L336A, L336S, L336H, D35E, D35W” (biorxiv, 2025)

Target: T1, β-glucosidase B (BglB) (Paenibacillus polymyxa, UniProt P22505)
T1 construct: previously cloned in pET29b+, expressed in E. coli, purified by nickel IMAC; band about 50 kD
Experiment: Michaelis-Menten, 4-nitrophenol release at […] nm
Type: biochemical
Details: 0.11-100 mM substrate, readings every minute for 15 min; triplicate

T1 sequence (P22505 whole entry): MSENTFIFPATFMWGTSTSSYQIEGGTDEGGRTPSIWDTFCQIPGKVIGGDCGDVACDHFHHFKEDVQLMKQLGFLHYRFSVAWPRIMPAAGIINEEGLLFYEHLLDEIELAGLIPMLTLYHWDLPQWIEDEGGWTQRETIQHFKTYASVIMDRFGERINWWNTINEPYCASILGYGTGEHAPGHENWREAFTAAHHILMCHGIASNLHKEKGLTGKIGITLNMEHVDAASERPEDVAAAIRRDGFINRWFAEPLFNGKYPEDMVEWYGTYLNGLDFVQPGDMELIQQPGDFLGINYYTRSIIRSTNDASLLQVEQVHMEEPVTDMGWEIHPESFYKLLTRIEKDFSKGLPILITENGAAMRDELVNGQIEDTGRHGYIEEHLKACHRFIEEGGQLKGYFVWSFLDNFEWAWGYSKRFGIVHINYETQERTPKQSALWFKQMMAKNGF

O=[N+]([O-])c1ccc(O[C@@H]2O[C@H](CO)[C@@H](O)[C@H](O)[C@H]2O)cc1 [pNPG, p-nitrophenyl-beta-D-glucoside]
Km: 3.93 ± 0.26 mM
